Measured values reported in publication PMC11901438, “Synthesis and Evaluation of Boron-Containing Heterocyclic Compounds with Antimicrobial and Anticancer Activities” (Molecules, 2025).
pIC50: −log10 of the molar value. In brackets after ≈: the same amount, converted by molar mass.

Key:
T. rubrum ATCC 28189 = assay: Antifungal susceptibility test (CLSI M38-A2 microdilution, resazurin), MIC90; details: Trichophyton rubrum, ATCC28189, read-out: T. rubrum ATCC 28189 MIC90
[1] = system: T. mentagrophytes (ATCC 11481); assay: as above; details: Trichophyton mentagrophytes, ATCC11481|ATCC28189, read-out: T. mentagrophytes ATCC 28189 MIC90
SCC-25 cells = assay: MTT anticancer assay in SCC-25 cells; type: cell-based; details: for SI (selectivity index): NOK-si versus SCC-25; for pIC50: MTT, 24 h
Description: (§1) Boronic acid and benzoboroxole derivatives have been identified as potential anticancer agents. To investigate their efficacy against head and neck cancer cell lines, SCC-25 cells were utilized in this study, as a model for oral squamous cell carcinoma. Additionally, cytotoxicity was performed in normal oral keratinocytes NOK-si cells to evaluate the selective index of the compounds. […] The selectivity of the compounds is quantified by the selectivity index (SI), with those with an SI greater than 3.0 being considered promising for further evaluation, in accordance with internal protocols.
(§2) The SCC-25 was purchased from Rio de Janeiro Cell Bank, and NOK-si was kindly provided by Prof. Carlos Rossa from the School of Dentistry—UNESP. The cell lines were initially thawed and cultured in 25 cm^2 cell culture flasks. Cell growth was monitored using a microscope, and the culture medium was changed periodically. Upon reaching confluency, cell dissociation was achieved by adding 5 mL of trypsin (Sigma-Aldrich, St Louis, MO, USA) and incubating the bottles in a CO2 incubator for 10 min. Subsequently, the cells were transferred to 15 mL Falcon tubes and centrifuged at 2000 rpm for 10 min. Cell counting was performed using a Countess II FL automated cell counter (ThermoFischer, Waltham, MA, USA). The cells were seeded at a density of 30,000 cells per well in 96-well plates. The plates were then incubated at 37 °C in 5% CO2 for 24 h. Following this, test compounds were incubated for another 24 h at 10 different concentrations: 50, 25, 12.5, 6.25, 3.12, 1.56, 0.78, 0.39, 0.19, and 0.097 µg/mL. After the specified time, MTT reagent (3 mg/mL) (Sigma-Aldrich, St Louis, MO, USA) dissolved in phenol-free RPMI 1640 was added and incubated for 4 h. The formed MTT crystals were solubilized using 2-propanol P.A (Sigma-Aldrich, St Louis, MO, USA) with agitation. Absorbance was read at 562 nm using an EZ Read 400 microplate reader (Biochrom, Cambridge, UK) and ADAP 2.0 Biochrom software (version 2.0). IC50 values and graphs were calculated by Dr. Paula Aboud Barbugli using Excel and Prism software (version 10.4.1). The MTT assay results were evaluated for normality using the Shapiro–Wilk test, followed by one-way ANOVA with Tukey’s post hoc test at a significance level of 5%.

[2] = system: M. tuberculosis H37RV ATCC 27294 strain; assay: Resazurin microtiter assay (REMA), MIC90; type: cell-based; details: Mycobacterium tuberculosis, cut-off 25 µM
NOK-si cells = assay: MTT cytotoxicity assay in normal oral keratinocytes NOK-si; type: cell-based; details: Keratinocyte, 24 h, read-out: NOK-si IC50
Description: as §1, §2

Structure (SMILES)	MIC90 (T. rubrum ATCC 28189)	MIC90 [1]	SI (selectivity index) (SCC-25 cells)	MIC90 [2]	CC50 (NOK-si cells)	pIC50 (SCC-25 cells; Homo sapiens, SCC-25, 24 h)	pIC50 (SCC-25 cells)	killing effect in SCC-25 cells (SCC-25 cells)
O=C(Nc1ccc(N2CCN(c3ncccn3)CC2)c(F)c1)c1cccc(B(O)O)c1 [Compound 30, [3-({3-Fluoro-4-[4-(pyrimidin-2-yl)piperazin-1-yl]phenyl}carbamoyl)phenyl]boronic acid]	297 µM (≈ 125 µg/mL)	297 µM (≈ 125 µg/mL)	<1	> 25 µM	–	–	–	–
O=C(Nc1ccc(N2CCN(c3ccc(F)cc3)CC2)c(F)c1)c1cccc(B(O)O)c1 [Compound 31, [3-({3-Fluoro-4-[4-(4-fluorophenyl)piperazin-1-yl]phenyl}carbamoyl)phenyl]boronic acid]	286 µM (≈ 125 µg/mL)	286 µM (≈ 125 µg/mL)	3.73	> 25 µM	> 221 µM	4.23	–	–
O=C(Nc1ccc(N2CCSCC2)c(F)c1)c1ccc(B(O)O)cc1 [Compound 38, {4-[(3-Fluoro-4-thiomorpholinophenyl)carbamoyl]phenyl}boronic acid]	347 µM (≈ 125 µg/mL)	347 µM (≈ 125 µg/mL)	<1	> 25 µM	149 µM	–	–	–
O=C(Nc1ccc(N2CCOCC2)c(F)c1)c1ccc(B(O)O)cc1 [Compound 39, {4-[(3-Fluoro-4-morpholinophenyl)carbamoyl]phenyl}boronic acid]	363 µM (≈ 125 µg/mL)	363 µM (≈ 125 µg/mL)	1.04	> 25 µM	77.1 µM	4.13	–	–
O=C(Nc1ccc(N2CCN(c3ccc(F)cc3)CC2)c(F)c1)c1ccc(B(O)O)cc1 [Compound 37, [4-({3-Fluoro-4-[4-(4-fluorophenyl)piperazin-1-yl]phenyl}carbamoyl)phenyl]boronic acid]	286 µM (≈ 125 µg/mL)	286 µM (≈ 125 µg/mL)	1.55	> 25 µM	123 µM	4.10	–	–
O=C(Nc1ccc(N2CCN(c3ccccn3)CC2)c(F)c1)c1ccc(B(O)O)cc1 [Compound 35, [4-({3-Fluoro-4-[4-(pyridin-2-yl)piperazin-1-yl]phenyl}carbamoyl)phenyl]boronic acid]	297 µM (≈ 125 µg/mL)	297 µM (≈ 125 µg/mL)	3.37	> 25 µM	221 µM	4.35	4.34	–
O=C(Nc1ccc(N2CCN(c3ccccn3)CC2)c(F)c1)c1ccc2c(c1)COB2O [Compound 44, N-{3-fluoro-4-[4-(pyridin-2-yl)piperazin-1-yl]phenyl}-1-hydroxy-1,3-dihydrobenzo[c][1,2]oxaborole-5-carboxamide]	289 µM (≈ 125 µg/mL)	146 µM (≈ 63.1 µg/mL)	<1	> 25 µM	–	–	–	absent killing effect
O=C(Nc1ccc(N2CCSCC2)c(F)c1)c1cccc(B(O)O)c1 [Compound 32, {3-[(3-Fluoro-4-thiomorpholinophenyl)carbamoyl]phenyl}boronic acid]	347 µM (≈ 125 µg/mL)	347 µM (≈ 125 µg/mL)	<1	> 25 µM	–	–	–	–
NNC(=O)c1ccncc1 [Isoniazide, reference compound]	–	–	–	0.11 µM (≈ 0.0151 µg/mL)	–	–	–	–
O=C(Nc1ccc(N2CCOCC2)c(F)c1)c1cccc(B(O)O)c1 [Compound 33, {3-[(3-Fluoro-4-morpholinophenyl)carbamoyl]phenyl}boronic acid]	363 µM (≈ 125 µg/mL)	363 µM (≈ 125 µg/mL)	<1	> 25 µM	–	–	–	–
O=C(Nc1ccc(N2CCN(c3ncccn3)CC2)c(F)c1)c1ccc(B(O)O)cc1 [Compound 36, [4-({3-Fluoro-4-[4-(pyrimidin-2-yl)piperazin-1-yl]phenyl}carbamoyl)phenyl]boronic acid]	297 µM (≈ 125 µg/mL)	297 µM (≈ 125 µg/mL)	1.00	> 25 µM	134 µM	3.87	–	–
O=c1[nH]cc(F)c(=O)[nH]1 [5-fluorouracil, reference compound]	–	–	–	–	–	2.74	–	–
CN(C/C=C/C#CC(C)(C)C)Cc1cccc2ccccc12 [Terbinafine, reference compound]	0.0001 µM (≈ 2.91e-05 µg/mL)	2.5e-05 µM (≈ 7.29e-06 µg/mL)	–	–	–	–	–	–
